The source of these data is patent US20220119456A1, “ANTI-SARS-COV-2 FUSION PEPTIDES” (KING FAISAL UNIVERSITY, priority 2020, published 2022).

One may read the IC50 as the midpoint of a concentration-inhibition curve. A low value points to greater potency.

In experiment [1] the test system is SARS-CoV-2 S pseudotyped VSV viral particles.
For experiment [2] the test system is unchanged. The source holds these as a separate data set.
The test system of another experiment is SARS-CoV-2. The note with it: for reduction in SARS-CoV-2 plaques formation: 10 μM peptide, Vero E6 cells.
For experiment [3], the system named is SARS-CoV-2 Spike-mediated cell-cell fusion.
Experiment [4] has as its system SARS-CoV-2 S pseudotyped VSV viral particles. The source holds these as a separate data set.
[5] abbreviates: S pseudotyped VSV viral particles.

Read-outs that look alike come from different tables or passages of the source. Where a SMILES comes first, the peptide text is derived from it.

For the molecule `CC[C@H](C)[C@H](NC(=O)CNC(=O)[C@H](CO)NC(=O)[C@@H](NC(=O)[C@H](CC(=O)O)NC(=O)CNC(=O)[C@H](CC(C)C)NC(=O)[C@@H](NC(=O)[C@@H](N)Cc1c[nH]cn1)C(C)C)[C@@H](C)CC)C(=O)N[C@@H](CC(N)=O)C(=O)N[C@@H](C)C(=O)N[C@@H](CO)C(=O)N[C@H](C(=O)N[C@H](C(=O)N[C@@H](CCC(N)=O)C(=O)N[C@H](C(=O)N[C@@H](CCC(N)=O)C(=O)N[C@@H](CCCCN)C(=O)N[C@@H](CCC(=O)O)C(=O)N[C@H](C(=O)N[C@@H](CC(=O)O)C(=O)N[C@@H](CCCNC(=N)N)C(=O)N[C@@H](CC(C)C)C(=O)N[C@@H](CC(N)=O)C(=O)N[C@@H](CCC(=O)O)C(=O)N[C@H](C(=O)N[C@@H](C)C(=O)N[C@@H](CCCCN)C(=O)N[C@@H](CC(N)=O)C(=O)N[C@@H](CC(C)C)C(=O)N[C@@H](Cc1c[nH]cn1)C(=O)N[C@@H](CCC(=O)O)C(=O)N[C@@H](CO)C(=O)N[C@@H](CC(C)C)C(=O)N[C@H](C(=O)N[C@@H](Cc1ccc(O)cc1)C(=O)N[C@@H](CC(C)C)C(=O)N[C@@H](CCC(N)=O)C(=O)N[C@@H](CCC(=O)O)C(=O)O)[C@@H](C)CC)C(C)C)[C@@H](C)CC)[C@@H](C)CC)C(C)C)C(C)C` [#121], the IC50 is 0.16 µM in experiment [1], over 10 µM in experiment [2] (setting [5]), 0.72 µM in experiment [3] and under 1 µM in experiment [4] (setting [5]). In addition, the “inhibition against the infection through the endocytosis pathway in VeroE6 cells” value in experiment [2] is reported as at most 38%. The “reduction in SARS-CoV-2 plaques formation” value with SARS-CoV-2 was “approximately 15%”. Besides, the “inhibition of TMPRSS2-dependent pseudovirus infection through plasma membrane” value in experiment [4] is “strong inhibition”.
`CC[C@H](C)[C@H](NC(=O)CNC(=O)[C@H](CCCNC(=N)N)NC(=O)[C@@H](NC(=O)[C@H](CCC(N)=O)NC(=O)[C@H](CCCNC(=N)N)NC(=O)[C@H](CC(C)C)NC(=O)[C@H](CCCNC(=N)N)NC(=O)[C@@H](N)Cc1c[nH]cn1)[C@@H](C)CC)C(=O)N[C@@H](CCCNC(=N)N)C(=O)N[C@@H](C)C(=O)N[C@@H](CCCNC(=N)N)C(=O)N[C@H](C(=O)N[C@H](C(=O)N[C@@H](CCC(N)=O)C(=O)N[C@H](C(=O)N[C@@H](CCC(N)=O)C(=O)N[C@@H](CCCCN)C(=O)N[C@@H](CCC(=O)O)C(=O)N[C@H](C(=O)N[C@@H](Cc1c[nH]c2ccccc12)C(=O)N[C@@H](CCCNC(=N)N)C(=O)N[C@@H](CC(C)C)C(=O)N[C@@H](CC(N)=O)C(=O)N[C@@H](CCC(=O)O)C(=O)N[C@H](C(=O)N[C@@H](C)C(=O)N[C@@H](CCCCN)C(=O)N[C@@H](CC(C)C)C(=O)N[C@@H](CC(C)C)C(=O)N[C@@H](CC(N)=O)C(=O)N[C@@H](CCC(=O)O)C(=O)N[C@@H](CO)C(=O)N[C@@H](CC(C)C)C(=O)N[C@H](C(=O)N[C@@H](Cc1ccc(O)cc1)C(=O)N[C@@H](CC(C)C)C(=O)N[C@@H](CCC(N)=O)C(=O)N[C@@H](CCC(=O)O)C(=O)O)[C@@H](C)CC)C(C)C)[C@@H](C)CC)[C@@H](C)CC)C(C)C)C(C)C` [#125] (H-HRLRQIRGIRARVVQIQKEIWRLNEVAKLLNESLIYLQE-OH): in the experiment with SARS-CoV-2, half-maximal inhibition (IC50) required 0.46 µM and the “reduction in SARS-CoV-2 plaques formation” value was determined as 75%. In addition, the IC50 in experiment [3] came out at 4.4 µM.
